Results from patent US20220273754A1, “SS-31 FOR THE PREVENTION AND/OR TREATMENT OF ANEURYSM” (FUNDACIÓ INSTITUT DE RECERCA DE L'HOSPITAL DE LA SANTA CREU …, priority 2019, published 2022).
Non-standard residues stand in square brackets, D forms with d. No end group written: not given here.

Columns and labels:
[1] = test system: ApoE−/− mice infused with Ang II; experiment: Survival of Ang II-infused ApoE−/− mice; format: in vivo; conditions: 3 mg/kg/day with Ang II 1000 ng/kg/min by osmotic minipump, 28 days
Protocol: (§1) The studies were developed in ApoE^−/− mice bred in the facility. The animals were infused with Ang II dissolved in saline (1000 ng/kg/min) by means of osmotic minipumps (model 1004, Alzet) implanted subcutaneously in the interscapular space of the mice previous anesthesia with isoflurane. The procedure lasted approximately 15 minutes per animal. Immediately after surgery, antibiotics (penicillin, 22,000 u/Kg, i.m.) and analgesics (buprenorphine 0.05 mg/Kg, i.m.) were administered to prevent infections and limit discomfort in the animals. Further, mice were kept on a heating pad until they woke up after surgery and were carefully monitored during the post-surgery period.
(§2) A group of mice infused with Ang II were treated with SS-31 in the form of chloride and dissolved in saline (3 mg/kg/day). Another group of animals infused with Ang II were treated with the SS-20 peptide also in the form of chloride, dissolved in saline and at the same dose. Both were administered together with Ang II by osmotic mini pump during the whole study (28 days). The control group consisted of ApoE^−/− mice infused with saline.

[2] = test system: ApoE−/− mice infused with Ang II; experiment: Aortic diameter and aneurysm incidence by ultrasonography in Ang II-infused ApoE−/− mice; format: in vivo; conditions: 28 days; for aortic diameter: 3 mg/kg/day with Ang II 1000 ng/kg/min by osmotic minipump, ultrasonography and macroscopic visualization; for incidence of AAA: 3 mg/kg/day with Ang II 1000 ng/kg/min, aneurysmal = external diameter >= 1.5 mm
Protocol: as §1, §2
The diameter of the aorta was evaluated weekly by abdominal echography using an ultrasound equipment (Vevo2100 Imaging systems; Visualsonics) with a 30 MHz transducer. The mice were anesthetized by inhalation of 1.5% isofluorane and secured in supine position on a thermal platform. After shaving the precord region, the transducer was applied to the abdominal wall to measure the abdominal aorta. Those abdominal aortas with external diameters greater than or equal to 1.5 mm were considered aneurysmal. All measurements were made from the captured images using the analysis software provided by Visualsonics.
(§3) After 4 weeks, the animals were euthanized under intraperitoneal terminal anesthesia with a mixture of medetomidine (1 mg/kg) and ketamine (75 mg/kg) in saline (final volume of 200 μl), the aortas were collected immediately, examined to determine the presence of aneurysms and fixed in paraformaldehyde or frozen in liquid nitrogen for subsequent RNA extraction.

[3] = test system: abdominal aorta of ApoE−/− mice infused with Ang II; experiment: Histology (Masson's trichrome, orcein) of abdominal aorta of Ang II-infused ApoE−/− mice; format: in vivo; conditions: 3 mg/kg/day with Ang II 1000 ng/kg/min, 28 days
Protocol: as §1, §2, §3

MMP2 = MMP2 mRNA by real-time PCR in abdominal aorta of Ang II-infused ApoE−/− mice; format: in vivo; conditions: 3 mg/kg/day with Ang II 1000 ng/kg/min, 28 days; normalized to GAPDH
Protocol: as §1
(§4) A group of mice infused with Ang II were treated with SS-31 in the form of chloride and dissolved in saline (3 mg/kg/day). Another group of animals infused with Ang II were treated with the SS-20 peptide also in the form of chloride, dissolved in saline and at the same dose. Both were administered together with Ang II by osmotic mini pump during the whole study (28 days). The control group consisted of ApoE^−/− mice infused with saline. […]
(§5) The expression levels (mRNA) of the metalloproteinases MMP2 and MMP9 in the abdominal aortas of the different study groups were also analyzed. […]

MMP9 = MMP9 mRNA by real-time PCR in abdominal aorta of Ang II-infused ApoE−/− mice; format: in vivo; conditions: 3 mg/kg/day with Ang II 1000 ng/kg/min, 28 days; normalized to GAPDH
Protocol: as §1, §4, §5

[4] = test system: mitochondrial permeability transition; conditions: cited from earlier work
[5] = test system: reactive oxygen species (ROS) production and lipid peroxidation; conditions: direct inhibition; cited from earlier work
[6] = test system: mitochondrial swelling and cytochrome c release; conditions: cited from earlier work
[7] = test system: myocardial contractile force during ischemia-reperfusion; conditions: SS-20 given after ischemia; cited from earlier work
[8] = test system: renal mitochondrial respiration; conditions: after ischemia; cited from earlier work
[9] = test system: angiotensin II (AngII)-induced cardiac hypertrophy; conditions: in vivo; cited from earlier work
diabetic rats = conditions: cited from earlier work; for body weight: diabetic rats; for lipid metabolism: rat, in vivo
[10] = test system: humans and rodents maintained on a high fat diet; conditions: cited from earlier work

Substance | survival rate [1] | aortic diameter [2] | incidence of AAA [2] | disorganization and rupture of elastic fibers (orcein staining) [3] | vascular remodeling: collagen deposition (Masson's trichrome) [3] | aortic MMP2 expression (mRNA) (MMP2) | aortic MMP9 expression (mRNA) (MMP9) | mitochondrial permeability transition [4] | ROS production and lipid peroxidation [5] | mitochondrial swelling and cytochrome c release [6] | protection of myocardial contractile force [7] | renal mitochondrial respiration [8] | AngII-induced cardiac hypertrophy, fibrosis and diastolic dysfunction [9] | body weight (diabetic rats) | lipid metabolism (diabetic rats) | insulin resistance [10]
D-Arg-2′,6′-dimethyltyrosine-Lys-Phe-NH2 [SS-31] | significantly improved the survival rate | reduced the increase in aortic diameter significantly | significantly decreased the incidence of AAA | limited the disorganization and rupture of elastic fibers | attenuated by treatment with SS-31 | attenuated this effect | attenuated this effect | inhibits mitochondrial permeability transition | directly inhibit reactive oxygen species (ROS) production and lipid peroxidation | inhibits mitochondrial swelling and cytochrome c release | protects myocardial contractile force | significantly improved renal mitochondrial respiration | ameliorates | useful in reducing body weight | beneficial effects on lipid metabolism | attenuates insulin resistance
F[dR]FK-NH2 [SS-20] | did not modify the survival rate | could not attenuate this increase in the aortic diameter | did not alter the aortic diameter nor the incidence of aneurysms | not observed in animals treated with SS-20 | not by treatment with SS-20 | did not modify the increase in the mRNA level | did not modify the increase in the mRNA level | inhibits mitochondrial permeability transition | only SS-31 was demonstrated to directly inhibit |  | offered no protection | significantly improved renal mitochondrial respiration |  | useful in reducing body weight | beneficial effects on lipid metabolism | 
